Test results as given in patent publication US9682953B2, “Amide compounds, compositions and applications thereof” (Advinus Therapeutics Limited, priority 2011, dated 2017).
Where two headings read alike, the source gives them in different places.

Key:
[1] = biological target: human Fatty Acid Amide Hydrolase (FAAH) (Homo sapiens (Human), UniProt O00519); assay: biochemical; details: for inhibition at 0.1 µM: read-out: hFAAH % inhibition at 100 nM, 100 nM (tier I)
Method: Material and Reagents: All reagents were purchased from Sigma-Aldrich unless specified. […] Chaperone protein groEL-groES in pGRO7 plasmid (Takara Bio Inc, Japan) was co-expressed with Fatty Acid Amide Hydrolase (FAAH) to improve solubility of the protein expressed in E coli. […] Briefly, the bacterial cultures in Luria Broth (2 L) were induced with arabinose (2 mM) and Isopropyl (β-D-1-thiogalactopyranoside, IPTG (1 mM), for 20 h at room temperature. The cultures were centrifuged at 1200×g for 10 min and the cell pellet was resuspended in 100 mL buffer containing of 20 mM NaPi (pH 7.4), 100 mM NaCl, Benzonase (500u), Aprotinin (1 μg/mL) and Leupeptin (1 μg/mL). Cells were lyzed by sonication (Amp 20%, Pulse 15 s×15, on ice) and the cell debris removed by centrifugation at 5000×g for 20 min. The supernatant was enriched via ultracentrifugation at 100,000×g for 1 h and the cell pellet was resuspended in 16 mL buffer containing 20 mM NaPi (pH 7.8), 500 mM NaCl, 1% Triton X-100. The resuspended cell extract was subjected to ultra-centrifugation at 100,000×g for 1 h and the enriched supernatant was used in the in vitro assay. All protein extraction steps were carried out on ice or at 4° C.
The assay was carried out in 200 μL volume in a 96-well black polystyrene plate (Greiner Bio-one, Germany). Each reaction consisted of human Fatty Acid Amide Hydrolase (FAAH) protein and 10 μM AAMCA in assay buffer containing 50 mM HEPES, 1 mM EDTA and 0.1% BSA, pH 7.4. The reaction was incubated with 2 μL of varying concentrations of inhibitor in DMSO (final concentration of DMSO 1%) with shaking for 1 min and monitored for increase in fluorescence in kinetic mode for 50 min. […] Rate of reaction as a function of the concentration of the inhibitor was used to determine the IC50 of the inhibitors. Data was analyzed using GraphPad Prism 5 (GraphPad Software Inc., San Diego, Calif.).

[2] = biological target: rat Fatty Acid Amide Hydrolase (FAAH) (Rattus norvegicus (Rat), UniProt P97612); assay: FAAH in vitro fluorescence assay (AAMCA hydrolysis), rat enzyme; assay type: biochemical; details: for inhibition at 0.1 µM: read-out: rFAAH % inhibition at 100 nM, 100 nM (tier I)
rat Fatty Acid Amide Hydrolase (FAAH), sequence (P97612 30-579): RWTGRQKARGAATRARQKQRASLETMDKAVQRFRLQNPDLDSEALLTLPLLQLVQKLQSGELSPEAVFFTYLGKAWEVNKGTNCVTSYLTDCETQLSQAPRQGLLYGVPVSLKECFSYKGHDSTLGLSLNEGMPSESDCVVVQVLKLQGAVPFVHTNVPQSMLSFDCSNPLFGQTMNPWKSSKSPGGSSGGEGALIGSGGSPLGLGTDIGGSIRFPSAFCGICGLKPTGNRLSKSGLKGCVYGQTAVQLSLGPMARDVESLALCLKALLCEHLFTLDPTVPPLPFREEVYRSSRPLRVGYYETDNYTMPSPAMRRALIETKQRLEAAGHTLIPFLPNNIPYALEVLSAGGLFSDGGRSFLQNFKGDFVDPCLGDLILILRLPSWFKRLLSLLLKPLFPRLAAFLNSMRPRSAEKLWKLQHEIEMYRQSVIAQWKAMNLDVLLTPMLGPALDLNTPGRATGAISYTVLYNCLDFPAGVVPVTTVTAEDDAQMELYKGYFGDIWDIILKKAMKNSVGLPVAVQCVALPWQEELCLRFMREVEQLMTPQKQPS
In short: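 Rat FAAH, E. coli-expressed with groEL-groES chaperone, used as enriched membrane extract with 10 μM AAMCA in 50 mM HEPES, 1 mM EDTA, 0.1% BSA, pH 7.4 (1% DMSO final).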

[3] = human FAAH, read-out: hFAAH IC50

human Fatty Acid Amide Hydrolase (FAAH), sequence (O00519 30-579): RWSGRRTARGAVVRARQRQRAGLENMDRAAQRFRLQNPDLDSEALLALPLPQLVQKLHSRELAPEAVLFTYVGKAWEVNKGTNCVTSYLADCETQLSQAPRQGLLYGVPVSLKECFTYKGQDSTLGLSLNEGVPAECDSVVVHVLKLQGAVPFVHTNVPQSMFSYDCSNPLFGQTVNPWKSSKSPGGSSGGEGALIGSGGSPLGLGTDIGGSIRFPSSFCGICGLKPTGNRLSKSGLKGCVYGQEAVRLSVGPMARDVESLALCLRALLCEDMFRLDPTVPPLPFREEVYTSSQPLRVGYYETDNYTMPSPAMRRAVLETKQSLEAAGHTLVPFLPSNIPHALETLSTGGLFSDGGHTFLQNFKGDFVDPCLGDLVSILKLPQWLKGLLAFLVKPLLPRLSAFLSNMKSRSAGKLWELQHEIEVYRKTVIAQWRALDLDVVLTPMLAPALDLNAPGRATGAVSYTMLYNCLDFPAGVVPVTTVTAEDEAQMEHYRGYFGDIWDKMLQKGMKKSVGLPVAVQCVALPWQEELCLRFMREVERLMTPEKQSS

| Compound | IC50 [1, 3] [nM] | IC50 ([2]; rat FAAH, read-out: rFAAH IC50) [nM] | IC50 ([1]; read-out: hFAAH IC50) [nM] | other results |
| --- | --- | --- | --- | --- |
| O=C(NC1CCC(=Cc2cccc(Oc3ccc(C(F)(F)F)cn3)c2)CC1)c1ccc(-n2cc(Cl)cn2)nc1 (centres unmarked) [Example 2.B-8, 6-(4-Chloropyrazol-1-yl)-N-[4-[[3-[[5-(trifluoromethyl)-2-pyridyl]oxy]phenyl]methylene]cyclohexyl]pyridine-3-carboxamide] | 5 | 21 |  |  |
| Cc1ccn(-c2ccc(C(=O)NC3CCC(=Cc4cccc(Oc5ccc(C(F)(F)F)cn5)c4)CC3)cn2)n1 (centres unmarked) [Example 2.B-9, 6-(3 -Methylpyrazol-1-yl)-N-[4-[[3-[[5-(trifluoromethyl)-2-pyridyl]oxy]phenyl]methylene]cyclohexyl]pyridine-3-carboxamide] | 9 | 22 |  |  |
| Cc1n[nH]c(C)c1-c1ccc(C(=O)NC2CCC(=Cc3cccc(Oc4ccc(C(F)(F)F)cn4)c3)CC2)cn1 (centres unmarked) [Example 2.B-11, 6-(3,5-Dimethyl-1H-pyrazol-4-yl)-N-[4-[[3-[[5-(trifluoromethyl)-2-pyridyl]oxy]phenyl]methylene]cyclohexyl]pyridine-3-carboxamide] | 17 | 52 |  |  |
| O=C(NC1CCC(=Cc2cccc(Oc3ccc(C(F)(F)F)cn3)c2)CC1)c1ccc(-n2cnnc2)nc1 (centres unmarked) [Example 2.B-13, 6-(1,2,4-Triazol-4-yl)-N-[4-[[3-[[5-(trifluoromethyl)-2-pyridyl]oxy]phenyl]methylene]cyclohexyl]pyridine-3-carboxamide] |  | 14 | 2 |  |
| O=C(NC1CCC(=Cc2cccc(Oc3ccc(C(F)(F)F)cn3)c2)CC1)c1ccc(-n2ccnn2)nc1 (centres unmarked) [Example 2.B-14, 6-(Triazol-1-yl)-N-[4-[[3-[[5-(trifluoromethyl)-2-pyridyl]oxy]phenyl]methylene]cyclohexyl]pyridine-3-carboxamide] |  | 11 | 2 |  |
| O=C(NC1CCC(=Cc2cccc(Oc3ccc(C(F)(F)F)cn3)c2)CC1)c1ccc(-n2nccn2)nc1 (centres unmarked) [Example 2.B-15, 6-(Triazol-2-yl)-N-[4-[[3-[[5-(trifluoromethyl)-2-pyridyl]oxy]phenyl]methylene]cyclohexyl]pyridine-3-carboxamide] | 3 | 9 |  |  |
| Nc1ccc(C(=O)NC2CCC(=Cc3cccc(Oc4ccc(C(F)(F)F)cn4)c3)CC2)cn1 (centres unmarked) [Example 2.C-1, 6-Amino-N-[4-[[3-[[5-(trifluoromethyl)-2-pyridyl]oxy]phenyl]methylene]cyclohexyl]pyridine-3-carboxamide] |  | 31 | 5 |  |
| COc1ccc(C(=O)NC2CCC(=Cc3cccc(Oc4ccc(C(F)(F)F)cn4)c3)CC2)cn1 (centres unmarked) [Example 2.C-2, 6-Methoxy-N-[4-[[3-[[5-(trifluoromethyl)-2-pyridyl]oxy]phenyl]methylene]cyclohexyl]pyridine-3-carboxamide] |  | 21 | 5 |  |
| O=C(NC1CCC(=Cc2cccc(Oc3ccc(C(F)(F)F)cn3)c2)CC1)c1cncc(O)c1 (centres unmarked) [Example 2.C-4, 5-Hydroxy-N-[4-[[3-[[5-(trifluoromethyl)-2-pyridyl]oxy]phenyl]methylene]cyclohexyl]pyridine-3-carboxamide] | 4 | 21 |  |  |
| Nc1ncc(C(=O)NC2CCC(=Cc3cccc(Oc4ccc(C(F)(F)F)cn4)c3)CC2)cn1 (centres unmarked) [Example 2.C-6, 2-Amino-N-[4-[[3-[[5-(trifluoromethyl)-2-pyridyl]oxy]phenyl]methylene]cyclohexyl]pyrimidine-5-carboxamide] |  | 16 | 1 |  |
| O=C(NC1CCC(=Cc2cccc(Oc3ccc(C(F)(F)F)cn3)c2)CC1)c1cnc2[nH]ccc2c1 [Example 2.D-5, N-[4-[[3-[[5-(Trifluoromethyl)-2-pyridyl]oxy]phenyl]methylene]cyclohexyl]-1H-pyrrolo[2,3-b]pyridine-5-carboxamide] |  | 16 | 2 |  |
| O=C(NC1CCC(=Cc2cccc(Oc3ccc(C(F)(F)F)cn3)c2)CC1)c1c[nH]c2ccccc12 [Example 2.D-6, N-[4-[[3-[[5-(Trifluoromethyl)-2-pyridyl]oxy]phenyl]methylene]cyclohexyl]-1H-indole-3-carboxamide] |  | 87 | 10 |  |
| Cc1nc(Oc2cccc(C=C3CCC(NC(=O)c4ccc(N)nc4)CC3)c2)ccc1Cl (centres unmarked) [Example 2.E-16, 6-Amino-N-[4-[[3-[(5-chloro-6-methyl-2-pyridyl)oxy]phenyl]methylene]cyclohexyl]pyridine-3-carboxamide] | 3 | 24 |  |  |
| Cc1nc(Oc2cccc(C=C3CCC(NC(=O)c4ccc(N)nc4)CC3)c2)ccc1C(F)(F)F (centres unmarked) [Example 2.E-17, 6-Amino-N-[4-[[3-[[6-methyl-5-(trifluoromethyl)-2-pyridyl]oxy]phenyl]methylene]cyclohexyl]pyridine-3-carboxamide] |  | 27 | 3 |  |
| Cc1nc(Oc2cccc(C=C3CCC(NC(=O)c4c[nH]nc4C(F)(F)F)CC3)c2)ccc1C(F)(F)F (centres unmarked) [Example 2.E-18, N-[4-[[3-[[6-Methyl-5-(trifluoromethyl)-2-pyridyl]oxy]phenyl]methylene]cyclohexyl]-3-(trifluoromethyl)-1H-pyrazole-4-carboxamide] | 13 |  |  | inhibition at 0.1 µM ([2]; rat FAAH): 55% |
| Nc1ccc(C(=O)NC2CCC(=Cc3cccc(Oc4ccc(C(F)(F)F)c(C5CC5)n4)c3)CC2)cn1 (centres unmarked) [Example 2.E-19, 6-Amino-N-[4-[[3-[[6-cyclopropyl-5-(trifluoromethyl)-2-pyridyl]oxy]phenyl]methylene]cyclohexyl]pyridine-3-carboxamide] |  |  |  | inhibition at 0.1 µM ([1]; human FAAH): 40%; inhibition at 0.1 µM ([2]; rat FAAH): 40% |
| Nc1ccc(C(=O)NC2CCC(=Cc3cccc(Oc4ccc(C(F)(F)F)c(Cl)n4)c3)CC2)cn1 (centres unmarked) [Example 2.E-20, 6-Amino-N-[4-[[3-[[6-chloro-5-(trifluoromethyl)-2-pyridyl]oxy]phenyl]methylene]cyclohexyl]pyridine-3-carboxamide] | 3 | 71 |  |  |
| Cc1nc(Oc2cccc(C=C3CCC(NC(=O)c4cnc(N)nc4)CC3)c2)ccc1C(F)(F)F (centres unmarked) [Example 2.E-22, 2-Amino-N-[4-[[3-[[6-methyl-5-(trifluoromethyl)-2-pyridyl]oxy]phenyl]methylene]cyclohexyl]pyrimidine-5-carboxamide] | 2 | 21 |  |  |
| Cc1cc(C(=O)NC2CCC(=Cc3cccc(Oc4ccc(C(F)(F)F)c(C)n4)c3)CC2)cnc1N (centres unmarked) [Example 2.E-23, 6-Amino-5-methyl-N-[4-[[3-[[6-methyl-5-(trifluoromethyl)-2-pyridyl]oxy]phenyl]methylene]cyclohexyl]pyridine-3-carboxamide] | 12 | 65 |  |  |
| CCc1nc(Oc2cccc(C=C3CCC(NC(=O)c4ccc(N)nc4)CC3)c2)ccc1C(F)(F)F (centres unmarked) [Example 2.E-24, 6-Amino-N-[4-[[3-[[6-ethyl-5-(trifluoromethyl)-2-pyridyl]oxy]phenyl]methylene]cyclohexyl]pyridine-3-carboxamide] | 34 |  |  | inhibition at 0.1 µM ([2]; rat FAAH): 47% |
| Cc1cc(C(=O)NC2CCC(=Cc3cccc(Oc4ccc(Cl)c(C)n4)c3)CC2)cnc1N (centres unmarked) [Example 2.E-25, 6-Amino-N-[4-[[3-[(5-chloro-6-methyl-2-pyridyl)oxy]phenyl]methylene]cyclohexyl]-5-methyl-pyridine-3-carboxamide] | 7 | 32 |  |  |
| Cc1nc(Oc2cccc(C=C3CCC(NC(=O)c4cnc(N)nc4)CC3)c2)ccc1Cl (centres unmarked) [Example 2.E-27, 2-Amino-N-[4-[[3-[(5-chloro-6-methyl-2-pyridyl)oxy]phenyl]methylene]cyclohexyl]pyrimidine-5-carboxamide] | 1 | 17 |  |  |
| N#Cc1nc(Oc2cccc(C=C3CCC(NC(=O)c4ccc(N)nc4)CC3)c2)ccc1C(F)(F)F (centres unmarked) [Example 2.E-28, 6-Amino-N-[4-[[3-[[6-cyano-5-(trifluoromethyl)-2-pyridyl]oxy]phenyl]methylene]cyclohexyl]pyridine-3-carboxamide] | 6 | 75 |  |  |
| Nc1ncc(C(=O)NC2CCC(=Cc3cccc(Oc4ccc(C(F)(F)F)cn4)c3)CC2)cc1Cl (centres unmarked) [Example 4.A-3, 6-Amino-5-chloro-N-[4-[[3-[[5-(trifluoromethyl)-2-pyridyl]oxy]phenyl]methylene]cyclohexyl]pyridine-3-carboxamide] |  |  |  | IC50 ([1]; hFAAH IC50): 3 nM; IC50 [2]: 16 nM |
| CN(C)c1ccc(C(=O)NC2CCC(=Cc3cccc(Oc4ccc(C(F)(F)F)cn4)c3)CC2)cn1 (centres unmarked) [Example 5.1, 6-(Dimethylamino)-N-[4-[[3-[[5-(trifluoromethyl)-2-pyridyl]oxy]-phenyl]methylene]cyclohexyl]pyridine-3-carboxamide] |  | 13 | 7 |  |
| CNc1ccc(C(=O)NC2CCC(=Cc3cccc(Oc4ccc(C(F)(F)F)cn4)c3)CC2)cn1 (centres unmarked) [Example 5.A-1, 6-(Methylamino)-N-[4-[[3-[[5-(trifluoromethyl)-2-pyridyl]oxy]phenyl]methylene]cyclohexyl]pyridine-3-carboxamide] |  | 11 | 4 |  |
| O=C(NC1CCC(=Cc2cccc(Oc3ccc(C(F)(F)F)cn3)c2)CC1)c1ccc(N2CCCC2)nc1 (centres unmarked) [Example 5.A-2, 6-Pyrrolidin-1-yl-N-[4-[[3-[[5-(trifluoromethyl)-2-pyridyl]oxy]phenyl]methylene]cyclohexyl]pyridine-3-carboxamide] |  | 28 |  | inhibition at 0.1 µM ([1]; human FAAH): 54% |
| O=C(NC1CCC(=Cc2cccc(Oc3ccc(C(F)(F)F)cn3)c2)CC1)c1ccc(-n2cccn2)nc1 (centres unmarked) [Example 5.A-6, 6-Pyrazol-1-yl-N-[4-[[3-[[5-(trifluoromemyl)-2-pyridyl]oxy]phenyl]methylene]cyclohexyl]pyridine-3-carboxamide] |  | 7 | 7 |  |
